From patent US20100074955A1, “Combination of NMDA-Receptor Ligand and a Compound With 5-HT6 Receptor Affinity” (LABORATORIOS DEL DR. ESTEVE, S.A., priority 2006, published 2010)

System: adult male Lister Hooded rats
Assay: Test of novel object discrimination in rats
Assay type: in vivo, rat
Conditions: memantine alone 5, 10, 15 and 20 mg/kg i.p. vs vehicle, 20 minutes before trial, 4 hour inter-trial interval, FIG. 1
Method: Adult male Lister Hooded rats (Charles River, UK) weighing 200-350 g at the start of the experiment were housed in groups of four on a 12:12 h light:dark cycle (lights on at 07:00 h). Food and water were available ad libitum throughout the study, and the room temperature (21±2° C.) and relative humidity (45-65%) were kept constant. In one experiment, rats received i.p. injections (2 ml/kg, −20 minutes prior to the familiarisation trial) of memantine (n=12) at 5, 10, 15 and 20 mg/kg compared with vehicle (0.5% methylcellulose in saline, 2 ml/kg), such that all rats received all doses of the compound in a random order with each behavioural test occurring at seven day intervals.
In the combination study, a group of rats (n=12 each) received injection of a sub-effective dose of compound 841 (1 mg/kg i.p.) or vehicle (0.5% methylcellulose in saline, 2 ml/kg), either alone or combined with memantine (5 mg/kg). Each drug combination was administered to all rats in the group over a period of 4 weeks in a random order using a seven day behavioural test interval. […]

SMILES: CC12CC3CC(C)(C1)CC(N)(C3)C2 [memantine, 1-amino-3,5-dimethyladamantane]
- discrimination of a novel object against a familiar object (time spent exploring each object): high amounts of said compound are necessary for rats to discriminate a novel object against a familiar object
